The subject of assay [1] is Rabbit polymorphononuclear leukocytes (neutrophils). The format is cell-based. As to conditions: concentration giving 50 percent of maximum activity; mean of at least three experiments; 30 minutes at 37° C. How it is done: Rabbit polymorphononuclear leukocytes (neutrophils) were obtained 12 to 14 hours after the intraperitoneal injection of 0.1 percent glycogen, as described in Becker et al (Z. Immunitaetsforsch Exp. Klin. Immunol., Volume 143, Page 466 1972). They were washed in Hanks' balanched salt solution containing 0.01 M tris (hydroxymethyl) aminomethane, pH 7.2, 1 mg/ml of glucose, and 1 mg/ml of crystalline bovine serum albumin. The Hanks' balanced salt solution was the buffer used throughout the work.
The assay employed a modified Boyden chamber as described by Becker et al, supra. […] The loaded chambers were incubated for 30 minutes at 37° C. This time interval was chosen as giving, for the particular batch of filters used, the greatest difference between the number of cells moving into the filter with no peptide in the lower compartment (background) and the maximum number of cells moving into the filter when stimulated by peptide. At the end of the incubation the filters were removed and stained and the number of cells in five high-power (400 magnification) fields (5 HPF) were counted and averaged. The results reported are the means of duplicate chambers.
The migration enhancing activities of different peptides were compared essentially as described by Schiffmann et al (J. Immunol., Volume […], Page 1830, 1975) and Showell et al (J. Immunol., Volume 116, Page 99, 1976). In measuring the relative activity of the peptides, a peptide was diluted so that each concentration was one quarter that of the next higher concentration. The concentrations of peptides were chosen on the basis of preliminary experiments to cover the range giving minimum to maximal activity. The chemotactic activity plotted against the logarithm of the molar concentration of peptide yielded a sigmoidal-shaped dose-response curve. Different peptides tested at the same time with the same cells gave curves which were parallel to each other in their linear portions and had the same maximum. The activities of the different peptides are reported as the ED50, i.e., the concentration of chemotactic factor giving 50 percent of the maximum activity.
The results are reported as the means ED50 ±SE (standard error) as determined by at least three separate experiments. In this assay, the lower the value of the ED50, the greater is the chemotactic activity.

In a further assay the test system is neutrophils. The format is cell-based, rabbit. As to conditions: molar concentration causing 50 percent of maximal release; 10 μg/ml cytochalasin B; five minutes at 37° C.
The test system of assay [2] is Escherichia coli ATCC 25922. The assay is described as follows: Kirby-Bauer disc assay, inhibitory zone size. The format is cell-based. As to conditions: E. coli; disc FML alone; 6 mm = disc, no inhibition.
Description: (§1) In these tables antimicrobial activity is expressed as inhibitory zone size as performed by the Kirby-Bauer assay.
(§2) The experiments in Tables 10-14 were performed using the following bacteria, media and experimental protocol:
(§3) The bacteria were Escherichia coli ATCC 25922 and Pseudomonas aeruginosa ATCC 27835.
(§4) The media was Trypticase soy agar (Baltimore Biological Laboratories, BBL) used as a general growth medium. Broth media was Brain heart infusion broth (BBL) for E. coli and medium 81 [trypticase soy broth without dextrose plus 1% potassium nitrate] for P. aeruginosa.
(§5) Antimicrobial susceptibility was tested on M9 medium [a glucose minimal salts medium (Miller, 1972)] solidified with 1.5% agar (Difco) for the base or 0.7% agar for overlay.
The following is the experimental protocol: Broth cultures of E. coli or P. aeruginosa were grown overnight in broth at 35° C. Cultures were diluted to visually match a 0.5 McFarland turbidity standard (Matsen and Barry, 1974); the numbers of organisms in this suspension ordinarily were .congruent.10^8 viable cells per ml. Ten microliter (ul) was inoculated into 10 ml. of 0.7% M9 agar that was melted and cooled to 46°-50° C. This was overlaid onto a 50 ml base of 1.5% M9 agar in 15 cm diameter petri dishes. The agar overlay was allowed to harden at room temperature for 30 min. Antimicrobial tests disks were placed on the surface of the agar, and the plates were incubated overnight at 35° C. Diameters of zones of inhibition of bacterial growth were measued with a vernier caliper and recorded to the nearest 0.1 mm.
In assay [3] the test system is Pseudomonas aeruginosa ATCC 27835. The assay is described as follows: Kirby-Bauer disc assay, inhibitory zone size. The format is cell-based. As to conditions: P. aeruginosa; disc FML alone; 6 mm = disc, no inhibition.
Description: as §1, §2, §3, §4, §5
The following is the experimental protocol: Broth cultures of E. coli or P. aeruginosa were grown overnight in broth at 35° C. Cultures were diluted to visually match a 0.5 McFarland turbidity standard (Matsen and Barry, 1974); the numbers of organisms in this suspension ordinarily were .congruent.10^8 viable cells per ml. Ten microliter (ul) was inoculated into 10 ml. of 0.7% M9 agar that was melted and cooled to 46°-50° C. This was overlaid onto a 50 ml base of 1.5% M9 agar in 15 cm diameter petri dishes. […] Diameters of zones of inhibition of bacterial growth were measued with a vernier caliper and recorded to the nearest 0.1 mm.
In assay [4] the test system is human polymorphonuclear leukocytes. The assay is described as follows: Chemotaxis for human polymorphonuclear leukocytes. As to conditions: human PMN, FIG. 2 text and summary (Table 6). The format is cell-based.
For assay [5], the target named is T1, surface receptor of rabbit polymorphonuclear leukocytes (Oryctolagus cuniculus, UniProt Q05394).
T1 construct: endogenous in cells; host or cells: rabbit polymorphonuclear leukocytes (neutrophils)
T1 sequence (Q05394 1-352): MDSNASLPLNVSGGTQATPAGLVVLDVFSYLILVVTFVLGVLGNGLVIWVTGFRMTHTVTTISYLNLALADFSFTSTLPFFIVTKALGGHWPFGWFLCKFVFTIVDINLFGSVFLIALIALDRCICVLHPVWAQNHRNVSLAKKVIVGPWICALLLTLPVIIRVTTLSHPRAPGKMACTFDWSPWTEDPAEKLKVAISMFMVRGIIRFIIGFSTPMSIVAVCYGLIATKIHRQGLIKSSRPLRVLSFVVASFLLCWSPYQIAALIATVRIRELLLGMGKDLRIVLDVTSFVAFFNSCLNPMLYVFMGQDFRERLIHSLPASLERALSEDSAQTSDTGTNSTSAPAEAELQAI
Description: Inhibition of F-Nle-leu (3H)PHE binding to rabbit PMN. As to conditions: F-Nle-leu (3H)PHE, rabbit PMN.

In assay [6] the test system is Pseudomonas aeruginsa, strain Mangalore. As to conditions: EXPT 1-3 on separate lines.
For assay [7], the system named is 4 strains of Pseudomonas aeruginosa.
Description: Antimicrobial activity was assayed by the MIC Technique using 4 strains of Pseudomonas aeruginosa.

Several values for one entry are separate records, joined by “and”; a condition that tells them apart may be missing. Equal values may be shown once. Residues, ends and D or L forms follow the SMILES beside them. *: point of attachment. For = O=C*

As for `CSCC[C@H](NC=O)C(=O)N[C@@H](CC(C)C)C(=O)O` [f--Met--Leu--OH] (For-Met-Leu-OH), in assay [1], the “Chemotactic Activity ED50 ± SE” value is given as 4.0 ± 0.45 × 10^-7 M. Further, the “ED50 ± SE Lysosyme” value in the assay on neutrophils is reported as 1.7 ± 0.17 × 10^-6 M. In addition, the “Zone Diameter” value in assay [2] and in assay [3] was 6.0 mm throughout.

In the case of “formyl-Met-Leu-phe-silver sulfadiazine [FMLP-AgSDZ]”, the “ED50, M concentration giving 50% max activity” value in assay [4] was 96 nM; in assay [4] (listed as FMLP--AgSDZ), 78 nM. In assay [5], the “ID50, molar concentration which displaced 50% of a labeled attractant from the cell receptor” value stood at 2 nM. The “MIC at 24h” value in assay [6] was 40 μg/m and 80 μg/m. The “concentration at which all strains were inhibited (MIC Technique)” value in assay [7] is listed as 80 μm/ml.

The record behind these values is patent US4427660A, “Formyl-methionyl chemotatic peptide antibiotic conjugates useful in treating infections” (priority 1982, dated 1984).
